This note sets out measurements from ChEMBL document CHEMBL1127130, “Peptidomimetic inhibitors of renin incorporating topographically modified isosteres spanning the P1( P3)-P1' sites” (Bioorg Med Chem Lett, 1993).

The target of this experiment is T1, Renin (Homo sapiens) (UniProt P00797).
T1 sequence (whole entry): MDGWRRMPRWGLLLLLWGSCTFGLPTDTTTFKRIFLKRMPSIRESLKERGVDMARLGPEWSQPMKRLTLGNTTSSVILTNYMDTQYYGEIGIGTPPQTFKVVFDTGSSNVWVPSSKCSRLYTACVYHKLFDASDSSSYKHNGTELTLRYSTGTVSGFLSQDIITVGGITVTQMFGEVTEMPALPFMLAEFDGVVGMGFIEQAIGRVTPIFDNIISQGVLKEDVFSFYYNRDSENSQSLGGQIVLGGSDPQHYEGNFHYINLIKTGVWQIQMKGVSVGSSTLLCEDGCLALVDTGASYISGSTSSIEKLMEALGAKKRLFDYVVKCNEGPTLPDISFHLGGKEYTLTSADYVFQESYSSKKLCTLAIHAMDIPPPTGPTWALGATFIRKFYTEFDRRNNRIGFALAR
Kind of experiment: The compound was evaluated for inhibitory activity against monkey plasma renin at concentration of […]. As to conditions: Cercopithecidae, target entry is the homologue from another species. Format: cell-free.

The term inhibition denotes the change of the read-out against control, counted positive when it falls. As to `C=CC[C@H](NC(=O)CNS(=O)(=O)N1CCOCC1)C(=O)N[C@@H](CC1CCC(CCC(C)C)CC1)[C@@H](O)[C@@H](O)CC(C)C` (stereo partly specified), the inhibition came to 29%.
